Measured values published in patent publication US20110028566A1, “COMPOSITIONS AND PRODUCTS CONTAINING CYCLOALIPHATIC DIOL ANTIMICROBIAL AGENTS AND METHODS OF USING THE COMPOSITIONS AND PRODUCTS” (EASTMAN CHEMICAL COMPANY, priority 2009, published 2011).

Key:
Format in all cases: cell-based
Aspergillus niger = experiment: Microbial challenge testing in BPW
Protocol: (§1) The microorganisms used in challenge tests are given in Table 3, designated as either ATCC (American Type Culture Collection) or wild type. These wild type organisms were problematic organisms previously isolated from chemical products. In the description for each organism, the bacteria are indicated as either GN (Gram negative) or GP (Gram positive).
(§2) All of the microorganisms were grown in Tryptose Soy Broth (TSB), DIFCO™ available from Becton, Dickinson and Company, containing 1% dextrose. Aspergillus niger and Candida albicans were incubated at 22° C.±2° C. for at least 96 hours. All bacteria were incubated at 35° C.±2° C. in a humidified incubator for at least 96 hours.
(§3) Aspergillus niger and Candida albicans were also grown on Sabouraud dextrose agar (SDA) at 22° C.±2° C. for 7 to 14 days or until full sporulation was achieved.
(§4) The following procedure was followed to determine the amount of each challenge material (inoculum broth) required to produce a 10^8 cfu/mL challenge, which is equivalent to a final test-sample microbial concentration of 10^5 to 10^6 cfu (colony-forming units)/mL.
(§5) Using a sterile serological pipette, 1 mL of the growth from each TSB culture was transferred into tubes containing 9 mL phosphate buffer (pH 7.2) and mixed thoroughly. This process was repeated to make serial 1:10 dilutions. Then 0.1 mL of each sample and dilution was inoculated onto agar plates to produce the equivalent of a further 1:10 dilution. C. albicans and A. niger were inoculated onto SDA and bacteria were inoculated onto Plate Count Agar (PCA), DIFCO™ available from Becton, Dickinson and Company. The 0.1 mL aliquots were evenly distributed on the plates using the spread-plate technique. The spread-plate technique is performed by spreading the aliquot over the entire plate surface using a sterile spreading rod while rotating the plate with a rotary auto-plater. After the inoculum was absorbed completely, each plate was inverted and incubated (fungi at 22° C.±2° C. and bacteria at 35° C.±2° C.).
(§6) After incubation for at least 48 hours, colonies that had developed on the agar plates were counted and recorded with the corresponding dilution. If counting had to be delayed temporarily, plates were refrigerated, preferably no more than 24 hours, until they could be counted. The number of cfu/mL was determined by multiplying the count by the dilution factor for that particular plate.
(§7) Turbidity in Nepholemetric Turbidity Units (NTU) was measured for each serial dilution using the HF-Micro 100 Model Turbidimeter. For each microorganism, the plate counts were compared to the turbidity readings.
Aspergillus niger cultures were harvested and spores dislodged from the SDA on which they were grown by rubbing the growth gently with a sterile inoculating loop. The spores were then mixed into the broth culture that had been incubated with a sterile magnetic stir bar to reduce pellicle formation. The spore-culture mixture was filtered repeatedly through sterile, non-absorbent cotton and harvested repeatedly, adjusting vegetative cells and spores to a level of 1.0×10^8. A hemocytometer was used to verify the final challenge concentration.
(§8) Control substrates (“broth alone”) were prepared for each microorganism separately in triplicate by adding 13.5 mL of BPW (pH 7.0) containing 1% (w/v) dextrose to each 20-mL glass tube; then adding 1.5 mL challenge material to produce a final concentration at time zero of 10^5 to 10^6 cfu/mL and a total volume of 15 mL.
(§9) Test sample substrates were prepared containing each test material (1,4-CHDM, etc) or combination of test materials at the concentrations shown in Tables 5 and 6.

Candida albicans = experiment: Microbial challenge testing in BPW
Protocol: as §1, §2, §3, §4, §5, §6, §7
On the day of challenge, the Candida albicans inoculum broth was poured through non-absorbent sterile gauze and centrifuged. The […] was then diluted with phosphate buffer (pH 7.2) until the desired turbidity was reached. Using a hemocytometer, a determination was made whether the challenge contained the desired concentration. Dilutions were made through 1.0×10^8 and three SDA spread plates were inoculated with 0.1 mL of each dilution.
as §8, §9

Trichophyton rubrum = experiment: Challenge testing with pathogenic fungi in SDB; settings: w/v % in label, INT respiratory dye
Protocol: (§10) Both M. canis and Trichophyton rubrum were grown on Sabouraud dextrose broth (SDB) (pH 5.6), while Malassezia fufur was grown in SDB supplemented with 2% (v/v) of olive oil and 0.2% (v/v) of Tween™ 80; incubation was at 22° C.±2° C. under continuous agitation by stirring for 10 days. The organisms were grown to a cell concentration of between 10^3 and 10^4 cfu/mL. The actual inoculation cell concentration of these challenges was determined by diluting in sterile buffer water and (spread-plate method) plating for enumeration.
(§11) Challenge organisms were used to inoculate tubes containing each test material (CHDM, etc) or combination of test materials, at concentrations given in Table 5, in SDB (or for M. furfur, in SDB supplemented with olive oil and Tween™ 80). The inoculations were in the amount of 1.5 mL aliquots of each culture with static incubation at 22±2° C. Subcultures were made after 3-, 14-, and 30-days incubation. All challenges were conducted in triplicate. In the case of M. canis, the growth response was assessed by the visual presence or absence of growth in the tubes; in the case of T. rubrum, a respiratory dye (0.2% w/v aqueous INT solution: 2-(4-iodophenyl)-3-(4-nitrophenyl)-5-phenyl tetrazolium chloride) was added to the tubes, turning red if the organism was viable; and, finally, in the case of M. furfur, the growth response was assessed based upon visible pellicle formation in the tubes at the meniscus. The fungal growth in each tube was assigned a grade code as follows:
(§12) 0: No visible growth 1: Some growth in tube 2: Moderate growth in tube 3: Good growth in tube 4: Extreme growth in tube
(§13) All test material concentrations are given as w/v %. The grade codes given are the average of the grade codes for duplicate or triplicate samples.
(§14) Table 5 compares the antimicrobial activity of 1,4-CHDM (AB) alone to 1,4-CHDM in combination with EDTA, phenoxyethanol (PE), and caprylyl glycol (CG). CHDM at 0.5% was tested with EDTA, and at 1.25 and 2.5% with EDTA, PE, and CG. (Note that the combination of CHDM with only EDTA was not tested against pathogenic fungi.) Results are also given for EDTA, PE, and CG alone, so the result for each mixture can be compared to the antimicrobial activity for each of its components individually. […] Possible synergies were determined by treating the grade code as an estimate of the log of the microbial count (log of cfu/mL). Log reductions can then be estimated by subtracting each grade code from the grade code for broth alone (grade code 5, except for the pathogenic fungi).

Malassezia furfur = experiment: Challenge testing with pathogenic fungi in SDB; settings: SDB with olive oil and Tween 80, w/v % in label, pellicle formation
Protocol: as §10, §11, §12, §13, §14

[1] = BPW, 3 days incubation, w/v % in label, average of replicates
[2] = BPW, 30 days incubation, w/v % in label, average of replicates

Structure (SMILES): CC1(C)C(O)C(C)(C)C1O (stereo not drawn) [TMCD, 2,2,4,4-tetramethyl-1,3-cyclobutanediol]
- Grade code A. niger (Aspergillus niger; 0.5%, 3 days incubation): 5
- Grade code A. niger (Aspergillus niger; 0.5%, 13 days incubation): 5
- Grade code A. niger (Aspergillus niger; 0.5%, 30 days incubation): 5
- Grade code A. niger (Aspergillus niger; 1.25%, 3 days incubation): 4
- Grade code A. niger (Aspergillus niger; 1.25%, 13 days incubation): 4
- Grade code A. niger (Aspergillus niger; 1.25%, 30 days incubation): 4
- Grade code A. niger (Aspergillus niger; 2.5%, 3 days incubation): 3 (Individual colonies not countable; >75% of plate covered with growth)
- Grade code A. niger (Aspergillus niger; 2.5%, 13 days incubation): 2 (Countable (11 to 100 colonies))
- Grade code A. niger (Aspergillus niger; 2.5%, 30 days incubation): 3 (Individual colonies not countable; >75% of plate covered with growth)
- Grade code C. albicans (Candida albicans; 0.5%, 3 days incubation): 4 (1001 to 10,000 colonies (thus 10,000 cfu/mL to 100,000 cfu/mL))
- Grade code C. albicans (Candida albicans; 0.5%, 14 days incubation): 4 (1001 to 10,000 colonies (thus 10,000 cfu/mL to 100,000 cfu/mL))
- Grade code C. albicans (Candida albicans; 0.5%, 30 days incubation): 4 (1001 to 10,000 colonies (thus 10,000 cfu/mL to 100,000 cfu/mL))
- Grade code C. albicans (Candida albicans; 1.25%, 3 days incubation): 3 (101 to 1000 colonies (thus 1000 to 10,000 cfu/mL))
- Grade code C. albicans (Candida albicans; 1.25%, 14 days incubation): 4 (1001 to 10,000 colonies (thus 10,000 cfu/mL to 100,000 cfu/mL))
- Grade code C. albicans (Candida albicans; 1.25%, 30 days incubation): 4 (1001 to 10,000 colonies (thus 10,000 cfu/mL to 100,000 cfu/mL))
- Grade code C. albicans (Candida albicans; 2.5%, 3 days incubation): 3 (101 to 1000 colonies (thus 1000 to 10,000 cfu/mL))
- Grade code C. albicans (Candida albicans; 2.5%, 14 days incubation): 2 (52 to 100 colonies counted (thus 520 to 1000 cfu/mL))
- Grade code C. albicans (Candida albicans; 2.5%, 30 days incubation): 2 (52 to 100 colonies counted (thus 520 to 1000 cfu/mL))

Structure (SMILES): O=C([O-])CN(CCN(CC(=O)O)CC(=O)O)CC(=O)[O-].[Na+].[Na+] [EDTA, ethylenediaminetetraacetic acid disodium salt]
- Grade code, A. niger, 3 Day (Aspergillus niger; [1]): 4
- Grade code, A. niger, 13 Day (Aspergillus niger; BPW, 13 days incubation, w/v % in label, average of replicates): 4
- Grade code, A. niger, 30 Day (Aspergillus niger; [2]): 4
- Grade code, Pathogenic Fungi, T. ruburm, 3 Days (Trichophyton rubrum; 3 days incubation): 1
- Grade code, Pathogenic Fungi, T. ruburm, 14 Days (Trichophyton rubrum; 14 days incubation): 0
- Grade code, Pathogenic Fungi, T. ruburm, 30 Days (Trichophyton rubrum; 30 days incubation): 0
- Grade code, Pathogenic Fungi, M. furfur, 3 Days (Malassezia furfur; 3 days incubation): 0
- Grade code, Pathogenic Fungi, M. furfur, 14 Days (Malassezia furfur; 14 days incubation): 0
- Grade code, Pathogenic Fungi, M. furfur, 30 Days (Malassezia furfur; 30 days incubation): 0
- Grade code, C. albicans, 3 Day (Candida albicans; [1]): 4 (1001 to 10,000 colonies (thus 10,000 cfu/mL to 100,000 cfu/mL))
- Grade code, C. albicans, 14 Day (Candida albicans; BPW, 14 days incubation, w/v % in label, average of replicates): 5 (More than 10,000 colonies estimated (thus >100,000 cfu/mL))
- Grade code, C. albicans, 30 Days (Candida albicans; [2]): 5 (More than 10,000 colonies estimated (thus >100,000 cfu/mL))
